Experimental data as given in ChEMBL document CHEMBL3301451, “MMV Malaria Box gametocyte functional viability assay screening”.

Key:
Type in all cases: functional
Set-up in all cases: concentration or dose not given beside the values
[1] = test system: Plasmodium falciparum; experiment: (§1) MMV: P. falciparum NF54 functionally mature Stage V gametocytes were incubated for 24 hr in the presence of the test compounds. Gamete formation was then triggered by addition of 2uM xantheurenic acid and temperature decrease to ~20C. Male gamete exflagellation was recorded and analysed by automated microscopy after 20 min. All compounds were tested in 4 independent experiments and data presented here is the mean.
[2] = test system: Plasmodium falciparum; experiment: as §1, with “Female” for “Male”, “formation” for “exflagellation”, “24 hr later” for “and analysed”, “detection of surface labelling of female gametes with a Cy3-conjugated antibody reactive to Pfs25.” for “after 20 min.”; settings: NF54, 24 h
[3] = test system: Plasmodium berghei; experiment: MMV: P. berghei-infected blood was withdrawn from mice by cardiac pucture before being immediately added to ookinete culture medium containing test compounds. 26 hr later, GFP-positive ookinetes were identified and counted by automated microscopy. All compounds were tested in 4 independent experiments and data presented here is the mean.

| SMILES | inhibition [1] | inhibition [2] | inhibition [3] |
| --- | --- | --- | --- |
| CCOc1cc(CNC(C)C(O)c2ccccc2)cc(Cl)c1OCC (stereo unspecified) | 11.6% | -44.5% | -7.956% |
| COc1ccc2nc(C)cc(Nc3ccccc3O)c2c1 | -8.38% | -42% | -6.855% |
| COc1ccc(-c2nc(N3CCN(C(=O)C4CCCCC4)CC3)c3c4c(sc3n2)CCCC4)cc1 | 1.21% | -9.88% | -8.277% |
| Cc1sc(NC(=O)c2ccco2)c(C(c2cccnc2)N2CCC(Cc3ccccc3)CC2)c1C (stereo unspecified) | 9.35% | -26% | -7.977% |
| Cc1cc(N2CCCC2)nc(Nc2ccc(NC(=O)CCc3ccccc3)cc2)n1 | -19.1% | -8.07% | -8.954% |
| N#Cc1nc(Cc2cccc3ccccc23)oc1N1CCN(C(c2ccccc2)c2ccccc2)CC1 | 10.2% | -38.4% | -7.443% |
| COC(=O)c1ccc(Cl)c2c1C1C=CCC1C(c1cccc3ccccc13)N2 (stereo unspecified) | 42.4% | 10.4% | -8.751% |
| CN(N=O)C1=C(NC2CCCCC2)C(=O)c2ccccc2C1=O | 10.5% | -27.6% | -8.019% |
| O=C(Nc1ccccc1O)c1ccc(Oc2cccc(C(=O)Nc3ccccc3O)c2)cc1 | 15.9% | -9.72% | -7.561% |
| CCCCCC(=O)N1c2ccccc2N=C2CC(c3ccc(OC)c(OC)c3)CC(O)=C2C1c1ccc(C(F)(F)F)cc1 (stereo unspecified) | 59.4% | -11.5% | -9.202% |
| Cc1cc(NCCN2CCCCC2)c2ccc3ccccc3c2n1 | -47.9% | 7.19% | -8.584% |
| Oc1ccccc1CN1CCC2(CCCN(Cc3ccccc3F)C2)C1 (stereo unspecified) | 22.9% | -21.4% | -6.641% |
| COc1ccc(-c2nc(NC(=O)CS(=O)(=O)c3ccc(F)cc3)sc2C)cc1 | -20.9% | 7.25% | -6.755% |
| COCCNCC(O)Cn1c2ccc(Cl)cc2c2cc(Cl)ccc21 (stereo unspecified) | -2.59% | -7.62% | -6.812% |
| O=C(NC1CCN(Cc2ccccc2)CC1)c1cc(-c2ccncc2)nc2ccc(Cl)cc12 | -6.34% | -10.1% | -9.022% |
| CCC(O)c1ccc(Br)cc1NC(=O)c1cccc(Cl)c1 (stereo unspecified) | 4.9% | -44% | -8.417% |

| SMILES | inhibition [1] | inhibition [2] | inhibition [3] |
| --- | --- | --- | --- |
| COc1ccc2nc(N)nc(C)c2c1 | 45.7% | 6.91% | -8.497% |
| Oc1ccc(-c2nc(-c3ccc4oc5ccc(-c6[nH]c(-c7ccc(O)cc7)nc6-c6ccccc6)cc5c4c3)c(-c3ccccc3)[nH]2)cc1 | 3.81% | -4.38% | -6.694% |
| Cc1[nH]c(-c2ccc(F)cc2)cc1C(=O)NC1CCN(Cc2ccccc2)CC1 | 7.06% | -3.53% | -7.189% |
| CC1CN(C(=O)c2sc3ccccc3c2Cl)CC(C)O1 (stereo unspecified) | 35.6% | -12.3% | -8.352% |
| COc1ccc(CCN2CCC(CN(C)Cc3cnn(-c4ccccc4)c3)CC2)cc1 | -4.67% | -27.5% | -8.146% |
| O=C(NC1CCCC1)c1ccc(N2CCC(NCc3cccc(C(F)(F)F)c3)CC2)cc1 | -12% | -14% | -10.11% |
| CCOc1cc(Cl)c(C(C)NC(=O)c2cccc(OC)c2)cc1OCC (stereo unspecified) | 3.61% | -14.9% | -8.297% |
| FC(F)(F)c1cccc(Nc2nc(-c3ccccc3)nc3ncccc23)c1 | 10.8% | 8.9% | -9.471% |
| Cc1ccc(Cl)cc1N1CCN(CCCNC(=O)C2CCN(c3nc4ccccc4[nH]3)CC2)CC1 | 5% | -57.2% | -9.077% |
| Cc1cc(Nc2ccc(OCc3ccccc3)cc2)nc2cc(O)ccc12 | 32.7% | 6.66% | -6.891% |
| Cn1c(C(=O)c2cccc3ccccc23)nc2ccccc21 | -24.7% | -20.6% | -7.647% |
| N=c1c2ccccc2nnn1-c1cccc(C(F)(F)F)c1 | 51.2% | 7.15% | -9.695% |
| COc1cc(-c2nc(-c3ccc(Sc4ccccc4)cc3)c(-c3ccccc3)[nH]2)cc(OC)c1O | 13.5% | -13.7% | -6.549% |
| CCOc1cc(Cl)c(C(C)NC(=O)c2ccccc2)cc1OCC (stereo unspecified) | 32.8% | -37% | -7.982% |
| O=C(Nc1ccc(CN2CCOCC2)cc1)c1ccc(-c2ccc(Br)cc2)o1 | 14.4% | -17.9% | -6.99% |
| CC(=O)NCCc1nc2ccccc2n1Cc1ccc(C(C)C)cc1 | -6.3% | -12.8% | -8.216% |
